Assay results reported in EP2730584B1, “PROTEIN-P[…] OBTAINED FROM NERVOUS TISSUE OF HOOFED LIVESTOCK EMBRYOS, PROCESS FOR PREPARING SAME AND PHARMACEUTICAL COMPOSITION” (Aktsionernoe Obschestvo "Pharm-Sintez", priority 2011, dated 2012).

System: mice marrow cells
Procedure: The study objective was detection and quantitative estimate of cytogenetic (mutagenic) activity of pharmacologic substances in polychromatophil cells (PCC) of mammal marrow. The method is based on microscopic recording of cells with micronuclei.
The experiments were performed to 2 months old male and female F1 (CBAx C57BI6/J) cross-breed mice weighing 18-20 g. Each group included 6 animals. The animals were kept at 12 hours light pattern with free food and water access. Animal experiments for assessment of mutagenic properties of the PPNC with single and five-time dosing were conducted in compliance with official records. Three sessions of experiments were carried out with corresponding controls: therapeutic dose was tested on male animals with a single introduction; subtoxic dose was tested on male animals with a single introduction; therapeutic dose was tested on male animals with a single introduction; subtoxic dose was tested on male animals and female with five-time introduction. […] The PPNC dosing for assessment of mutagenic activity was calculated based on the maximum human recommended daily therapeutic dose (TD). […] In order to calculate an experiment dosing for mice, a conversion factor is recommended that takes into account a human or animal body surface area to weight ratio. In our study, it was 8.33. Therefore, the mice TD was approximately 8.33 x human TD (0.42 mg/kg).
As a subtoxic dose, 10mg/kg, the maximum possible in this experiment conditions dosing was used, as the substance was presented in 0.1 mg/ml concentration, and the normally used amount of substance for mice is 0.1 ml per 10 g.
Seven animal groups were formed: four experimental groups and three corresponding reference groups. The substance in the amount of 0.1 mg/kg was introduced five times at 24 hours interval to males and females. […]
Marrow cell preparations for micronuclei count were made by a standard method in compliance with common guidelines [20]. […] 2,000 polychromatophil cells from each animal were analyzed in encoded preparations. […]

O=P1(N(CCCl)CCCl)NCCCO1 (stereo not drawn) [Cyclophosphamide, cyclophosphamide]
frequency of micronucleus cells (20 mg/kg intraperitoneally, male mice, 3.16 % in reference): 62.1%
increased frequency of micronucleus cells (20 mg/kg intraperitoneally, male mice, P<0.001): 19.6 times
polychromatophilic to normochromatic erythrocytes ratio (20 mg/kg, compared to control P<0.005): found to shift to the latter
